Patent US20040038855A1 (priority 1999, published 2004)
Where a name gives a salt, the structure may show the parent alone. Read-outs that look alike come from different tables or passages of the source.

Key:
human MCH1 receptor [1] = molecular target: T1, human MCH1 receptor (Homo sapiens, UniProt Q99705); test: Intracellular calcium response to MCH in COS-7 cells transfected with MCH1 (fluo-3, FLIPR): antagonist potency; format: cell-based; set-up: expressed in transfected cells; host or cells: COS-7; details: read-out: Kb (nM) hMCH1
Excerpt: MCH1 antagonist compounds were identified by their ability to inhibit the MCH-elicited response. […]. From the IC50 values, the antagonist potency (Kb)was derived using the Cheng-Prussof correction (Lazareno and Birdsall, 1993). […]

human MCH1 receptor [2] = molecular target: T1, human MCH1 receptor; test: Competition binding, membrane preparations of A293 cells expressing the human MCH1 receptor, [3H] Compound 10 as radioligand; set-up: expressed in transfected cells; details: Table 3b; A293 cell membranes, [3H] Compound 10; read-out: hMCH1* Ki
Description: TRITIATED METHYL (4S)-3-{[(3-{4-[3-(ACETYLAMINO)PHENYL]-1-[…]}PROPYL)AMINO]CARBONYL}-4-(3,4-DIFLUOROPHENYL)-6-(METHOXYMETHYL)-2-OXO-1,2,3,4-TETRAHYDRO-5-PYRIMIDINECARBOXYLATE ([^3H] COMPOUND 10): This radiochemical synthesis was carried out by Amersham Pharmacia Biotech, Cardiff, Wales. A methanolic solution of methyl (4S)-3-({[3-(4-[3-(acetylamino)phenyl]-3,6-dihydro-1(2H)pyridinyl)propyl]amino}carbonyl)-4-(3,4-difluorophenyl)-6-(methoxymethyl)-2-oxo-1,2,3,4-tetrahydro-5-pyrimidinecarboxylate was exposed to tritium gas at 1 atmosphere pressure in the presence of 5% palladium on carbon with stirring overnight to give the tritiated methyl (4S)-3-{[(3-{4-[3-(acetylamino)phenyl]-1-piperidinyl}propyl)amino]carbonyl}-4-(3,4-difluorophenyl)-6-(methoxymethyl)-2-oxo-1,2,3,4-tetrahydro-5-pyrimidinecarboxylate ((+)-isomer) After purification by reverse phase HPLC (Hypersil ODS, 4.6×100 mm, methanol:H2O:Et3N 10:90:1 to 100:0:1 in 15 min at 1.0 mL/min, with radiochemical and UV detection), this product was used as a radioligand in the MCH1 binding assays. The same procedure was carried out with H2 gas in place of ^3H2 to afford the non-radioactive version of Compound 10.

rat 5HT2C receptor = molecular target: T2, rat 5HT2C receptor (Rattus norvegicus, UniProt P08909); test: Binding affinity at the rat 5HT2C receptor; details: read-out: r5HT2C Ki
T2 construct: expressed in transfected cells
T2 sequence (P08909 33-460): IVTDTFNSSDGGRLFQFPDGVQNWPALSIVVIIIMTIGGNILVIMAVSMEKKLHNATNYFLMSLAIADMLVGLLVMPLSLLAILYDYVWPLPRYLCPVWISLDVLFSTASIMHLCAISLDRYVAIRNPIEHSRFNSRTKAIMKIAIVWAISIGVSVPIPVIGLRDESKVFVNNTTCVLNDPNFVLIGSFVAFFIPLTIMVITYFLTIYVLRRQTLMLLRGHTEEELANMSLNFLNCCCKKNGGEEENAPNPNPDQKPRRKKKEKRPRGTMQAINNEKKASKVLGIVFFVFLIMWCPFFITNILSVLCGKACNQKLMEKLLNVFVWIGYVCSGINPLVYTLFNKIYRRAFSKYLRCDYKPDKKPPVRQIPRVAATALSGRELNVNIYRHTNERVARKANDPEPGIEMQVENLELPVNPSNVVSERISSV
Excerpt: (§1) The design of such compounds can be optimized by determining their binding affinity at the recombinant MCH1, NPY1, NPY2, Gal1, Gal2, Gal3, and 5HT2C receptors. The methods to obtain the cDNA of the receptor, express said receptors in heterologous systems, and carry out assays to determine binding affinity are described in the following publications: human NPY1 (Larhammar et al., 1992), human NPY5 (U.S. Pat. No. 5,602,024, the disclosure of which is hereby incorporated by reference in its entirety into this application), human Gall (Habert-Ortoli et al., 1994), human Gal2 (Smith et al., 1997), human Gal3 (Smith et al., 1998), and rat 5HT2C (Julius et al., 1988). Additionally, the compounds would optimally not bind at the following receptors due to possible side effects: human H1 histamine and human H2 histamine receptors; human alpha-1A adrenergic, human alpha-1D adrenergic, human alpha-2A adrenergic, human alpha-2B adrenergic, and human alpha-2C adrenergic receptors; human dopamine D1, D2, D3, D4, and D5 receptors; the β-adrenoceptor; and the human 5HT1A, human 5HT1B, human 5HT1D, human 5HT1E, human 5HT1F, human 5HT2A, rat 5HT2C, human 5HT4, human 5HT6, and human 5HT7 receptors.
Other 5HT Receptors: Other serotonin receptor binding assays were performed according to published methods: rat 5HT2C receptor (Julius et al., 1988); and 5HT6 (Monsma, et al., 1993). The binding assays using the 5HT4 receptor were performed according to the procedures described in U.S. Pat. No. 5,766,879, the disclosure of which is hereby incorporated by reference in its entirety into this application.

human GALR1 receptor = molecular target: T3, human GALR1 receptor (Homo sapiens, UniProt P47211); test: Binding affinity at the human GALR1 receptor; details: read-out: hGALR1 Ki
T3 construct: expressed in transfected cells
T3 sequence (P47211 1-349): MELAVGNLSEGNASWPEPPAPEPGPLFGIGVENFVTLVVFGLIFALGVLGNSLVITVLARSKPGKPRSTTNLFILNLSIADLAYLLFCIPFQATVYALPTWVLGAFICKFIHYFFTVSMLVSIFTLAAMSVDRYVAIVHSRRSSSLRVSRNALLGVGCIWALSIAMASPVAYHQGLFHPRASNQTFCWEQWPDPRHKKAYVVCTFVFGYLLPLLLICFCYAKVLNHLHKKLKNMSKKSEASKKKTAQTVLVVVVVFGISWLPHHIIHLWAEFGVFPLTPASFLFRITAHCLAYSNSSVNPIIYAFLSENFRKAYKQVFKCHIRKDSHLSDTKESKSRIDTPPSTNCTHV
Excerpt: as §1

human GALR2 receptor = molecular target: T4, human GALR2 receptor (Homo sapiens, UniProt O43603); test: Binding affinity at the human GALR2 receptor; details: read-out: hGALR2 Ki
T4 construct: expressed in transfected cells
T4 sequence (O43603 1-387): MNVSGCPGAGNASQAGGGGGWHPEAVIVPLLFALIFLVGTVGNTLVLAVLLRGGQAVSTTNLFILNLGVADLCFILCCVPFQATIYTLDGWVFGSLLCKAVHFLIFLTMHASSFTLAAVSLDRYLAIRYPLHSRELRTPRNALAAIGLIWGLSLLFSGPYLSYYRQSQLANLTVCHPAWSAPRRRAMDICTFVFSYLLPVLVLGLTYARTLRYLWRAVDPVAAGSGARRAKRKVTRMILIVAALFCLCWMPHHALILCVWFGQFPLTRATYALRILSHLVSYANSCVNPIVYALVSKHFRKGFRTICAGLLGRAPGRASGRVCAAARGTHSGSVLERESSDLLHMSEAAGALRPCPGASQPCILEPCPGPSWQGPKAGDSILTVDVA
Excerpt: as §1

human GALR3 receptor = molecular target: T5, human GALR3 receptor (Homo sapiens, UniProt O60755); test: Binding affinity at the human GALR3 receptor; details: read-out: hGALR3 Ki
T5 construct: expressed in transfected cells
T5 sequence (O60755 1-368): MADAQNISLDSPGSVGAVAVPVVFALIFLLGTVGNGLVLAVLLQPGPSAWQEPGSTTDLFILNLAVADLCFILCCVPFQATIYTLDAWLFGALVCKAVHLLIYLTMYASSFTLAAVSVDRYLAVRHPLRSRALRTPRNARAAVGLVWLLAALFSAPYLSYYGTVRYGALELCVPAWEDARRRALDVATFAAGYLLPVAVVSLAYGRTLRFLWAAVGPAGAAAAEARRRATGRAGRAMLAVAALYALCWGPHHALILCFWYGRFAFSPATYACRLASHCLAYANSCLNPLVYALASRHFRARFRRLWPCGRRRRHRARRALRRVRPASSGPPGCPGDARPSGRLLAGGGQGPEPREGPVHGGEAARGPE
Excerpt: as §1

T1 sequence (Q99705 whole entry): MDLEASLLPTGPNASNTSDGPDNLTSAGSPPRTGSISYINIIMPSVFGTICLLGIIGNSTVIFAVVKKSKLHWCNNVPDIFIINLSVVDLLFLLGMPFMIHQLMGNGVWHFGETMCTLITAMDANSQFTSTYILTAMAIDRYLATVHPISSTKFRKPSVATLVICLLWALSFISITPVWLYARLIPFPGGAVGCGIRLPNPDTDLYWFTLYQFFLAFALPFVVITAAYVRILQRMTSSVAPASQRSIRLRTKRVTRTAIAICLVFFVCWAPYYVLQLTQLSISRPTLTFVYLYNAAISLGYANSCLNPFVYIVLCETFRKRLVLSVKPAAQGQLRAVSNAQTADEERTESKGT

**Q.** Which melting point does the source give for O=C(CCCN1CCC(NC(=O)c2ccccc2)CC1)c1ccc(Cl)cc1 (as salt: HCl) [Example 28, [3-(4-CHLOROBENZOYL)]PROPYL-4-BENZAMIDOPIPERIDINE] here?
**A.** 243 to 244 °C

**Q.** With COCC1=C(C(=O)OC)C(c2ccc(F)c(F)c2)N(C(=O)NCCCN2CCC(OC(C)=O)(c3ccccc3)CC2)C(=O)N1 (stereo not shown) (as salt: hydrochloride) [Example 3, (1)-1,2,3,6-TETRAHYDRO-1-{N-[3-(4-O-ACETYL)-4-PHENYLPIPERIDIN-1-YL]PROPYL}CARBOXAMIDO-5-METHOXYCARBONYL-4-METHOXYMETHYL-6-(3,4-DIFLUOROPHENYL)-2-OXOPYRIMIDINE] as the compound, how does the melting point read?
**A.** 82 to 84 °C

**Q.** For COC(=O)C1=C(C)NC(=O)N(C(=O)NCCCN2CCC3(CC2)OCc2ccccc23)C1c1ccc(F)c(F)c1 (stereo not shown) (as salt: hydrochloride) [Example 20, 4-(3,4-DIFLUORPHENYL)-6-METHYL-2-OXO-3-{[3-(4-SPIRO[ISOBENZOFURAN-1(3H),4′-PIPERIDINE]PROPYL}-1,2,3,4-TETRAHYDROPYRIMIDINE-5-CARBOXYLIC ACID METHYL ESTER], which melting point is on record?
**A.** 178 to 182 °C

**Q.** For COC(=O)C1=C(C)NC(=O)N(C(=O)NCCCN2CCN(c3ccccc3C)CC2)C1c1ccc(F)c(F)c1 (stereo not shown) (as salt: hydrochloride) [Example 35, 1,2,3,6-TETRAHYDRO-1{N-[4-(2′-METHYL-PHENYL)PIPERAZIN-1-YL]-PROPYL}-CARBOXAMIDO-4-METHYL-6-(3,4-DIFLUOROPHENYL)-2-OXO-PYRIMIDINE], which melting point is on record?
**A.** 66 to 71 °C

**Q.** For COC(=O)C1=C(C)NC(=O)N(C(=O)NCCCN2CCC3(CCc4ccccc43)CC2)C1c1ccc2nonc2c1 (racemic) (as salt: hydrochloride) [Example 21], which melting point is on record?
**A.** 155 to 157 °C

**Q.** Which melting point does the source give for COC(=O)C1=C(C)NC(=O)N(C(=O)NCCCN2CCC3(CC2)OCc2ccccc23)C1c1ccc2nonc2c1 (single isomer, unassigned) (as salt: hydrochloride) [Example 18] here?
**A.** 180 to 182 °C

**Q.** With COC(=O)C1=C(C)NC(=O)N(C(=O)NCCCN2CCN(c3ccccc3[N+](=O)[O-])C[C@@H]2C)C1c1ccc(F)c(F)c1 (single isomer, unassigned; (+)) (as salt: HCl) [Example 34] as the compound, how does the melting point read?
**A.** 150 to 153 °C

**Q.** With COCC1=C(C(=O)OC)C(c2ccc(F)c(F)c2)N(C(=O)NCCCN2CCC(c3cccc(OC)c3)CC2)C(=O)N1 (single isomer, unassigned; (+)) [Example 9, (+)-1,2,3,6-TETRAHYDRO-1-N-[4-(3-METHOXY)-PHENYL}-PIPERIDIN-1-YL]-PROPYL-CARBOXAMIDO-4-METHOXYMETHYL-6-(3,4-DIFLUOROPHENYL)-2-OXOPYRIMIDINE-5-CARBOXYLIC ACID METHYL ESTER] as the compound, how does the Kb (human MCH1 receptor [1]) read?
**A.** 35 nM

**Q.** What about the melting point of the same compound?
**A.** 80 to 84 °C

**Q.** Which Kb (human MCH1 receptor [1]) does the source give for COCC1=C(C(=O)OC)C(c2ccc(F)c(F)c2)N(C(=O)NCCCN2CCC(O)(c3ncccc3C)CC2)C(=O)N1 (single isomer, unassigned; (+)) [Example 16, (+)-1,2,3,6-TETRAHYDRO-1-{N-[4-HYDROXY-4-(2-PYRIDYL)-PIPERIDIN-1-YL]PROPYL}CARBOXAMIDO-4-METHOXYMETHYL-6-(3,4-DIFLUOROPHENYL)-2-OXOPYRIMIDINE-5-CARBOXYLIC ACID METHYL ESTER] here?
**A.** 329 nM

**Q.** What about the melting point of the same compound?
**A.** 132 to 135 °C

**Q.** Which results are given for COCC1=C(C(=O)OC)C(c2ccc(F)c(F)c2)N(C(=O)NCCCN2CC=C(c3cccc(NC(C)=O)c3)CC2)C(=O)N1 (stereo not shown) [Example 2, METHYL 3-[(3-4-[3-(ACETYLAMINO)PHENYL]-1,2,3,6-TETRAHYDRO-1-PYR-IDINYLPROPYL)AMINO]CARBONYL-4-(3,4-DIFLUOROPHENYL)-6-(METHOXY-METHYL)-2-OXO-1,2,3,4-TETRAHYDRO-5-PYRIMIDINECARBOXYLATE]?
**A.** Ki (human MCH1 receptor [2]): 0.049 µM; Ki (rat 5HT2C receptor; Table 3a): 39.8 µM; Ki (rat 5HT2C receptor; Table 3b): 39.8 µM; Ki (human GALR1 receptor; Table 3a): > 50 µM; Ki (human GALR1 receptor; Table 3b): > 50 µM; Ki (human GALR2 receptor; Table 3a): > 50 µM; Ki (human GALR2 receptor; Table 3b): > 50 µM; Ki (human GALR3 receptor; Table 3a): > 50 µM; Ki (human GALR3 receptor; Table 3b): > 50 µM

**Q.** For O=C(NC1CCN(CCC2CCc3ccccc3C2=O)CC1)c1ccccc1 (stereo not shown) [Example 5], which melting point is on record?
**A.** 158 to 159 °C

**Q.** Which melting point does the source give for COC(=O)C1=C(C)NC(=O)N(C(=O)NCCCN2CCC3(CCc4ccccc43)CC2)C1c1ccc(F)c(F)c1 (stereo not shown) [Example 32] here?
**A.** 150 to 153 °C
